Experimental data: US20230062537A1, “Therapy of oxygen pulses for treating neurodegenerative disorders such as Parkinson Disease (PD), Alzheimer’s Disease (AD), Amiotrophic Lateral Sclerosis (ALS) or Motor Neuron Disease (MND) and other dementias, and Lymphedema, Arthritis and Depression” (priority 2021, published 2023)
Read-outs that look alike come from different tables or passages of the source.

Assays:
Arthritis = settings: method No 4
Procedure: (§1) The pulse oxygen therapy as described therein for treating neurodegenerative diseases (PD, AD, ALS, MS, Arthritis, Lymphedema and Depression) to patients with mild, moderate, severe, or critical conditions may be applied as follow: • 1. […] Patients must have comfortable accommodation (temperature, illumination and sanitary conditions). • 2. As prophylactic treatment (elder patients and/or with chronic diseases) treat patients with 6 l/min oxygen flow for 60 min once a day during 5 days. • 3. As treatment for patients with mild disease (initial symptoms) treat patients with 6 l/min oxygen flow for 60 min once a day during 10 days. • 4. As treatment for patients with moderate disease treat patients with 6 l/min oxygen flow for 60 min twice a day during 10 days. • 5. As treatment for patients with severe disease treat patients with 6 l/min oxygen flow for 60 min four time a day during 10 days. • 6. As treatment for patients with critical disease treat patients with 6 l/min oxygen flow for 60 min every 3 hours during 10 days.

Lymphedema = settings: method No 4
Procedure: as §1

Depression = settings: method No 4
Procedure: as §1

Parkinson Disease = system: Parkinson Disease
Procedure: as §1

[1] = for oxygen transported to the tissues: cardiac flow of 1 l/min
Description: At sea level, (non humidified) room air contains 21% O2 which translates into an oxygen partial pressure of 160 mm Hg [0.21*760 mm Hg)]. However, the body mean tissue oxygen levels are much lower than this level. Alveolar air contains 14% oxygen (106 mm Hg), arterial oxygen concentration is 12% (91 mm Hg), venous oxygen levels are 5.3% (40 mm Hg), and mean tissue intracellular oxygen concentration is only 3% (22 mm Hg (Guyton, and Hall, 1996). Furthermore, direct microelectrode measurements of tissue O2 reveal that parts of the brain normally experience O2 levels considerably lower than total body mean tissue oxygen levels, reflecting the high oxygen utilization in brain. These studies also highlight considerable regional variation in average brain oxygen levels (Table 1) that have been attributed to local differences in capillary density. Mean brain tissue oxygen concentration in adult rates is 1.5% (Silver and Erecinska, 1988), and mean fetal sheep brain oxygen tension has also been estimated at 1.6% (Koos and Power, 1987).
If we inspire air at normal pressure of 760 mm Hg (O221%) alveolar oxygen content will be 14% (106 mm Hg) and arterial oxygen content 12% (91 mm Hg). However arterial oxygen content includes oxygen content in the Hemoglobin plus oxygen absorbed in the plasma. (Mathews and Van Holde, 2002)
Oxygen content in the Hemoglobin (ml/dL)=Hb (g/dL)*% Sat.*[…]
At 100 mmHg oxygen pressure and 100% Hemoglobin saturation Oxygen content in the arterial blood is 20.7 ml/dL
If we consider a normal cardiac flow of 1 l/min, oxygen transported to the tissues would be […] or 0.924 mol-g of oxygen (5.57*10^23 molecules of oxygen/min.).
If we inspire oxygen enriched air of 31% O2, arterial pressure of oxygen would be (31/21)*100=147 mm Hg
Also oxygen content at the brain tissue will be:
Oxygen content in the arterial blood=Oxygen in Hemoglobin+Oxygen absorbed in the plasma
If we inspire oxygen of 95% O2, arterial pressure of oxygen would be (95/21)*100=452 mm Hg

[2] = system: PD, AD, ALS, Arthritis, Lymphedema, and Depression patients
Procedure: In our therapy the oxygen pulses are administered in consonance with the advance of the neurodegenerative diseases (PD, AD, ALS, MS, Arthritis, Lymphedema and Depression) as described as follow: • a. At the beginning of the neurodegenerative disease with the apparition of the first symptoms using procedure 1 or 2 twice a day for 5 days. • b. When the neurodegenerative disease has been detected, with a medical diagnostic, using procedure 1 or 2 four times a day for 10 days. • c. With an advanced neurodegenerative disease using procedure 1 or 2 eight times a day for 10 days

Structure (SMILES): O=O [oxygen]
- deformation at follow-up (Arthritis; after 12 months): no more deformation has been observed
- outcome after 10 days (Arthritis; after 10 days): a notable recuperation takes place
- time to begin of recovery (Arthritis; person, severe deformation in hands): 5 days
- limbs inflammation at follow-up (Lymphedema; after 11 months): no limbs inflammation has developed
- outcome after 10 days (Lymphedema; after 10 days): a notable recuperation takes place
- time to begin of recovery (Lymphedema; person, severe limbs inflammation after cancer radiotherapy): 5 days
- Depression at follow-up (Depression; after 11 months): no more Depression has been detected
- outcome after 10 days (Depression; after 10 days): a notable recuperation takes place
- time to begin of recovery (Depression; person, severe Depression): 5 days
- symptoms at follow-up (Parkinson Disease; after 12 months, method No 4): no AD symptoms has developed
- time to recovery (Parkinson Disease; patient, moderate conditions, method No 4: 6 l/min oxygen flow 60 min twice a day during 10 days): 5 days
- additional flow of oxygen ([1]; 31% O2 inspired): 0.15 L/min
- increase of the oxygen transport to the tissues ([1]; 31% O2 inspired): 0.72%
- Oxygen content in the arterial blood ([1]; 31% O2 inspired, 147 mm Hg): 20.85 ml/dL
- oxygen transported to the tissues ([1]; 31% O2 inspired): 20.85 l Oxygen/min
- Oxygen at the brain level, Cortex (gray) ([1]; 31% oxygen inspired): 3.69-7.79 % O2
- Oxygen at the brain level, Cortex (white) ([1]; 31% oxygen inspired): 1.17-3.0 % O2
- Oxygen at the brain level, Hippocampus ([1]; 31% oxygen inspired): 3.8-5.7 % O2
- Oxygen at the brain level, Hypothalamus ([1]; 31% oxygen inspired): 2.0-3.0 % O2
- Oxygen at the brain level, Pons, fornix ([1]; 31% oxygen inspired): 0.14-0.58 % O2
- additional flow of oxygen ([1]; 95% O2 inspired): 1.4 L/min
- increase of oxygen flow to the tissues ([1]; 95% O2 inspired): 6.76%
- Oxygen content in the arterial blood ([1]; 95% O2 inspired, 452 mm Hg): 21.80 ml/dL
- oxygen transported to the tissues ([1]; 95% O2 inspired): 21.80 l Oxygen/min
- Oxygen at the brain level, Cortex (gray) ([1]; 95 % oxygen inspired): 11.3-23.8 % O2
- Oxygen at the brain level, Cortex (white) ([1]; 95 % oxygen inspired): 3.58-9.18 % O2
- Oxygen at the brain level, Hippocampus ([1]; 95 % oxygen inspired): 11.6-17.4 % O2
- Oxygen at the brain level, Hypothalamus ([1]; 95 % oxygen inspired): 6.12-9.18 % O2
- Oxygen at the brain level, Pons, fornix ([1]; 95 % oxygen inspired): 0.42-1.77 % O2
- arterial pressure of oxygen ([1]; oxygen enriched air of 31% O2 inspired): 147 mm Hg
- arterial pressure of oxygen ([1]; oxygen of 95% O2 inspired): 452 mm Hg
- use of the therapy in patients [2]: satisfactory used
